From patent EP4755885A1 (Shanghai Hansoh Biomedical Co., Ltd., priority 2023, dated 2025) come the findings set out here.

Data set [1] is described as follows: Pharmacokinetic evaluation in beagles, oral administration. It counts as in vivo. Particulars: male, beagle, dog, po, p.o. 2 mg/kg, plasma. The gist of the method:
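Male beagles (3) fasted overnight received 2 mg/kg orally as a 0.4 mg/mL solution in 10% PEG400/10% PG/80% glycine buffer, pH 9.0-9.5. Plasma (EDTA-K2) sampled predose and 0.25-24 h; acetonitrile precipitation, then LC/MS/MS quantification.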

Data set [2] deals with T1, human GLP-1 receptor (Homo sapiens, UniProt P43220).
T1 construct: expressed in transfected cells
The data set can be described thus: cAMP production in cell line stably transformed with human GLP1 receptor, 30 min co-incubation (HTRF). It counts as cell-based. Particulars: CHO-K1/GLP-1R/CRE-luc cells, stimulation for 0.5 h, read-out: EC50. On the procedure: The purpose of this assay example is to test the ability of the compound to activate the human GLP-1 receptor on cell surface. The EC50 for stimulated cAMP production after activation characterizes the ability of the compound to activate the human GLP-1 receptor.
In this experiment, the compound and cells were co-incubated for 30 min.
Frozen cell line CHO-K1/GLP-1R/CRE-luc stably transformed with human GLP1 receptor was removed from a liquid nitrogen tank, and was placed in a 37°C water bath for rapid thawing. The cells were resuspended in DMEM/F12 medium, and after centrifugation, were washed once. The cells were resuspended in an experimental buffer, i.e., DMEM/F12 medium containing 0.1% casein. After centrifugation, cell density was adjusted using the experimental buffer. The cells were plated onto a 384-well plate at a density of 1500 cells/5 µL/well. Then, each well was added with 2.5 µL of IBMX working solution prepared with the buffer, the final concentration of IBMX being 0.5 mM, and 2.5 µL of a serially diluted compound sample (starting from […], 3-fold dilution, 12 concentrations). The plate was centrifuged at 1000 rpm for 1 min, and was stood for incubation at 37°C for 0.5 h. Determination was performed using the Cisbio cAMP - Gs Dynamic kit. cAMP-d2 and anti-cAMP-Eu3+-Cryptate were diluted 18-fold and 20-fold respectively with cAMP Lysis & Detection Buffer, and were respectively mixed homogeneously. Each well was added with 5 µL of diluted cAMP-d2 solution, and the plate was centrifuged at 1000 rpm for 1 min, and shaken for 30 seconds for homogeneous mixing. Then, each well was added with 5 µL of diluted anti-cAMP-Eu3+-Cryptate solution, and the plate was centrifuged at 1000 rpm for 1 min and was incubated in the dark at room temperature for 1 h. HTRF signals were read using the Biotek Synergy H1 microplate reader, the excitation wavelength being 320 nm and the emission wavelengths being 620 nm and 665 nm.
The signal-to-signal ratio was calculated (665 nm/620 nm * 10,000). Nonlinear fitting between the signal-to-signal ratio and the sample concentration was performed in GraphPad Prism 10 using a four-parameter equation to obtain the EC50 value.

Data set [3] concerns the target T1, human GLP-1 receptor. As to the kind of experiment: cAMP production in cell line stably transformed with human GLP1 receptor, 2 h co-incubation (HTRF). It counts as cell-based. Particulars: CHO-K1/GLP-1R/CRE-luc cells, stimulation for 2 h, read-out: EC50. The method, boiled down:
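CHO-K1/GLP-1R/CRE-luc cells (human GLP-1R) incubated 2 h at 37 °C with compound (12-point 3-fold series) and 0.5 mM IBMX in DMEM/F12 with 0.1% casein. cAMP measured by HTRF (665/620 nm ratio); EC50 from four-parameter fit.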

T1 sequence (P43220 24-463): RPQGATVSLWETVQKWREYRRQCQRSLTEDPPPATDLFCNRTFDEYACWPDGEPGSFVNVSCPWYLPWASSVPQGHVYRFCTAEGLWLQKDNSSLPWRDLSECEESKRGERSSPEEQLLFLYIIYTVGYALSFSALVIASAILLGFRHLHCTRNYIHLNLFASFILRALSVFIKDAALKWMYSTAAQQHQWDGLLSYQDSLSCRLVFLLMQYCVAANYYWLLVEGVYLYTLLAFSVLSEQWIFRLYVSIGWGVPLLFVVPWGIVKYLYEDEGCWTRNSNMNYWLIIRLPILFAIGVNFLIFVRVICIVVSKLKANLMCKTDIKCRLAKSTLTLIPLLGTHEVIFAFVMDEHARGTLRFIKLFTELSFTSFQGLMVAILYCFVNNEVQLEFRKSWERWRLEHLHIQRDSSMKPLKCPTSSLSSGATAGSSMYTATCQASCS

The term AUC(0-inf) denotes total exposure, with the tail of the curve extrapolated. Low readings indicate less exposure, high ones more exposure. What is called half-life is the time in which the quantity being followed falls by half. By AUC(0-t) is commonly meant the area under the concentration-time curve up to a stated or last time point. For orientation: Cmax means the maximum level reached in the sampled fluid or tissue. One may read the Tmax as the time from dosing to the highest level. By EC50 is commonly meant the concentration that produces a half-maximal response. In data set [1], `[2H]C([2H])([2H])n1nc2c3c(c(-n4ccn(-c5c6c(nn5-c5cc(C)c(F)c(C)c5)CCN(C(=O)c5cc7cc([C@H]8CCOC(C)(C)C8)ccc7n5[C@@]5(c7noc(=O)[nH]7)C[C@@H]5COC5CC5)[C@H]6C)c4=O)ccc31)OCCC2` [Example 285, 3-((1S,2S)-2-(cyclopropyloxymethyl)-1-(5-((S)-2,2-dimethyltetrahydro-2H-pyran-4-yl)-2-((S)-2-(4-fluoro-3,5-dimethylphenyl)-4-methyl-3-(3-(2-(methyl-d3)-2,7,8,9-tetrahydrooxahepta[4,3,2-cd]indazol-5-yl)-2-carbonyl-2,3-dibydro-1H-imidazol-1-yl)-4,5,6,7-tetrahydro-2H-pyrazolo[4,3-c]pyridine-5-carbonyl)-1H-indol-1-yl)cyclopropyl)-1,2,4-oxadiazol-5(4H)-one] had an AUC(0-inf) of 19.4 µg·h/mL and a half-life of 4.1 h. In data set [1] (read-out: AUC 0-t), the AUC(0-t) turned out to be 19.2 µg·h/mL. In data set [1] (read-out: Cmax), the Cmax was found to be 3.6 µg/mL. For the same compound, the MRT inf in data set [1] (read-out: MRT 0-∞) came to 5.3 h. Besides, in data set [1] (read-out: tmax), the Tmax stood at 1.5 h. Also, the EC50 at human GLP-1 receptor [2] is 0.71 nM. Besides, the EC50 on human GLP-1 receptor [3] is 0.09 nM.
